Values of other authors, collected in US8535722B2, “Functionally graded biocompatible coating and coated implant” (priority 2005, dated 2013).

## [Ag] [Ag/Ag^+, silver]
  threshold of cytotoxicity in vivo: 10 ppm
